Measured values from patent US20220409573A1, “Hippocampus Regeneration And Memory Recovery” (INNOBIOSCIENCE, LLC, priority 2021, published 2022).
“Also recorded” adds a separate entry of the source.

Tests used:
[1] = test system: CA3-CA1 transmission in the hippocampus of APPswe/PS-1 mice; experiment: LTP by TBS in hippocampal CA1 slices from treated APPswe/PS-1 mice; type: in vivo; conditions: slices from the two sets (7- and 12-month-old) of treated APPswe/PS-1 mice
[2] = test system: Wnt/β-catenin pathway in hippocampal neurons; experiment: Wnt/β-catenin pathway activation in cultured hippocampal neurons (western blot, immunofluorescence); type: cell-based, rat
Procedure: Primary culture of rat hippocampal neurons. Rat hippocampal cultures were prepared as previously described (Arrazola et al, 2009). On day 3 of culture, hippocampal cells were treated with […] 1-b-Darabinofuranosylcytosine (AraC) during 24 h to reduce the number of proliferating non-neuronal cells. […] PCR-ARRAY. RNA from hippocampal neurons was extracted using Trizol. Quantification and purity of RNA preparations were checked by absorbance using Nanodrop ND-2000. Only preparations with a 260/280 nm ratio≥1.8, a 260/230 nm ratio ≥1,7 and no sign of RNA degradations, verified by agarose gel electrophoresis with Gel Red TM were used. Genomic DNA was degraded. Using RT2First-Strand cDNA Synthesis kit (SuperArray), 1 μg total RNA was reverse transcribed and then real-time PCR was performed by adding cDNA directly to PCR Master Mix, containing SYBR Green and ROX. The mixtures were then aliquoted into a 96-well PCR array plates, which profiles the expression of 84 Wnt target genes from rat. The PCR was run on ABI StepOnePlus, with 1 cycle of 10 min at 95° C. followed by 40 cycles of 15 s at 95° C. and 1 min at 60° C. Cycle threshold (Ct) values were calculated for all the genes present on the array (Schmittgen & Livak, 2008).
Treatment of neuronal cultures. Primary hippocampal cultures of neurons 14 DIV were washed twice in neurobasal medium and maintained for 1 hour.
Nuclear and cytoplasmatic extraction. Following a time-course treatment, neurons were washed with cold PBS and harvested in 600 μL of cold homogenization buffer (10 mM HEPES pH 7,9; 1,5 mM MgCl2; 10 mM KCl; 1 mM DTT). The cells were disrupted by 20 passed, back and forth, through a syringe of 1 mL. Lysates were centrifuged for 6 minutes at 700 g at 4° C. and the supernatant was removed. The precipitate was washed in 100 μL of buffer (20 mM HEPES pH=7,9; 420 mM NaCl; 1,5 mM MgCl2; 0,2 mM EDTA; 1 mM DTT; 25% glicerol) and centrifuged again to generate nuclear fraction. Cytosolic fractions were generated from the supernatantat 100.000 g for 1 h at 4° C. Both buffers were supplemented with protease inhibitors and serine-phosphatase. Nuclear and cytosolic fractions were subsequently subjected to western blotting.
Immunoblotting. The samples were dissected on ice and immediately frozen in liquid nitrogen or processed has previously detailed (Inestrosa et al, 2011). Briefly, tissues were homogenized in RIPA buffer (10 mM Tris-Cl, pH 7.4, EDTA 5 mM, 1% NP-40, 1% sodium deoxycholate, and 1% SDS) supplemented with a protease inhibitor mixture (1 mM PMSF, 2 μg/mL aprotinin, 1 μg/mL pepstatin and 10 μg/mL benzamidine) and phosphatase inhibitors (25 mMNaF, 100 mM Na3VO4, 1 mM EDTA and 30 μM Na4P207) using a Potter homogenizator and then passed sequentially through different caliber syringes. Protein samples were centrifuged at 14000 rpm at 4° C. twice for 15 min. Protein concentration was determined using the BCA Protein Assay Kit (Pierce). Samples were resolved by […] 10% SDS-PAGE and transferred to a PVDF membrane. The reactions were followed by incubation with anti-mouse, anti-goat or anti-rabbit IgG peroxidase conjugated (Pierce, Rockford, Ill.) and developed using an ECL kit (Western Lightning Plus ECL, PerkinElmer).
Immunofluorescence. Hippocampal neurons were seeded onto poly-L-lysine-coated cover slips in 24-well culture plates at a density of 5×10^4 cellsper well, as described previously (Arrazola et al, 2009; Chacon et al, 2008). A mouse monoclonal anti-b-catenin was used. Cells were extensively washed with PBS and then incubated with Alexa 488-conjugated anti-mouse IgG for 1 h at room temperature. Cells were mounted in mounting medium and analyzed in a Carl-Zeiss Confocal Laser Microscope.

[3] = test system: dentate gyrus of the hippocampus of wild-type mice; experiment: Adult hippocampal neurogenesis (Ki67, DCX immunofluorescence); type: in vivo; conditions: for percentage of the granular cell layer covered by DCX staining / total number of Ki67+ cells in the SGZ: vs vehicle, 2 mg/kg
Procedure: Animals. Two-month-old C57BC6 wild-type mice were treated and handled according to National Institutes of Health guidelines (NIH, […], Md.). The treatments were performed by intraperitoneal (ip) injection of 2.0 mg/kg ANDRO and wild-type control animals were injected only with saline solution as vehicle.
Perfusion and postfixation. Mice were anesthetized (100 μg ketamine+10 μg xylazine in 10 μl saline/g), and then transcardially perfused with saline, followed by 4% paraformaldehyde (PFA) in 0.1M PBS. The brains were removed and incubated inPBS-4% PFA for 24 h at room temperature, dehydrated in 30% sucrose andkept at 4° C. until analysis.
Tissue sectioning. After dehydration,each mouse brain was sectioned on a cryostate in 12 sets of serial coronal sections of 40 μm thickness (Leica Microsystems,Wetzlar, Germany) and collected in ice-cold-PBS in multiwell dishes.Each set contained 5-7 sections covering the entire length of the hippocampus.
Inmunofluorescence for Ki67 and Doublecortin (DCX). Sections were washed with PBS 3 times for 5 min and then incubated in blocking solution (3% donkey serum, 3% BSA, 0.5% Triton X-100 in PBS) for 4 h. Then, tissues were incubated overenight with primary antibodies at 4° C. Primary antibodiesused were:rabbit anti-Ki67 (Abcam), rabbit anti-DCX (Cell Signaling Technology Inc., Beverly, Mass., USA), monoclonal anti-NeuN (Millipore, Billerica, Mass., USA). After washing 3 times with 0.5% Triton X-100 PBS, sections were incubated with Dy Light (Abcam) conjugated secondary antibodies for 2 h at room temperature. Slices were mounted on gelatin-coated slides with Fluoromont-G(Electron Microscopy Sciences, Hatfield, Pa., USA). For quantification, Ki67 positive cells were countedusing a fluorescence microscope (Olympus BX51, Tokyo, Japan). Cells were counted in all sections of one set (see tissue sectioning). Total cells counted in one set were multiplied by the total number of sets to obtain an estimation of the total number of Ki67+ cells in the complete hippocampus. For quantification of the % area covered by DCX, double labeling DCX/NeuN was carried. The total area of the granular cell layer was estimated as the area positive for NeuN staining and the percentage of this area covered by DCX staining was estimated. This image analysis was carried out using the ImageJ software (NIH, USA). Images shown were analyzed by confocal laser microscopy (Olympus FV 1000) and z-projections were generated with ImageJ software.

[4] = different concentrations for 6 h, 14 DIV neurons
[5] = 2-month-old mice, 2 mg/kg i.p. 3 times per week for 4 weeks

For `C=C1CC[C@@H]2C(C)(CO)[C@H](O)CC[C@@]2(C)C1C/C=C1/C(=O)OC[C@H]1O` (stereo in doubt) [ANDRO, 3-(2-(Decahydro-6-hydroxy-5-(hydroxymethyl)-5,8a-dimethyl-2-methylenenaphthyl)ethylidene)dihydro-4-hydroxyfuran-2(3H)-one], the LTP induction [1] was “recovery in the capacity to induce a LTP; also recorded: have the property to induce a LTP that is maintained for 1 h”, the “β-catenin levels by immunofluorescence” value ([2]; 5 μM for 6 h, 14 DIV neurons) was “increased β-catenin levels” and the “time of peak accumulation of cytoplasmic and nuclear β-catenin” value ([2]; ANDRO 10 μM time course) was 9 h. The “time of maximum increase of the inhibited form of GSK-3β” value ([2]; ANDRO 10 μM time course, cytoplasmic fraction) was 6 h, the “accumulation of β-catenin (western blot)” value [2, 4] was “accumulation of β-catenin in a concentration-dependent manner” and the “active form of GSK-3β (phosphor-Tyr-216)” value [2, 4] was “decrease in the active form”. For the same compound, the “inhibited form of GSK-3β (phospho-Ser-9)” value [2, 4] was “increase in the inhibited form of the enzyme”, the “density of immature neurons positive for DCX” value [3, 5] was “increase in the density of immature neurons” and the “percentage of the granular cell layer covered by DCX staining” value [3, 5] was “significantly increased”. For the same compound, the “total number of Ki67+ cells in the SGZ” value [3, 5] was “significantly increased the total number of Ki67^+ cells”, the “total number of Ki67+ cells in the SGZ” value ([3]; 2-month-old mice, 2 mg/kg i.p. 3 times per week for 4 weeks, listed as Ando) was “significant increase in the total number of Ki67^+ cell” and the “percentage of the granular cell layer covered by DCX staining” value ([3]; 2-month-old mice, 2 mg/kg i.p. 3 times per week for 4 weeks, listed as Andro) was “significant increase in the percentage of the granular cell layer area covered by DCX staining”. The “morphology of DCX+ cells” value ([3]; compared to control mice) was “more complex morphology”.
